Here are results for one compound from patent US6809112B2, “Method of treating sexual disturbances” (priority 1999, dated 2004).

By melting point is commonly meant the temperature, or range, at which the solid turns liquid. Compound `CN[C@@H]1Cc2cccc3[nH]c(=S)n(c23)C1.O=C(O)CC(O)C(=O)O` yielded a melting point of 195 to 196 °C.
